Source: article PMC5423977, “Safety, pharmacokinetics, and pharmacodynamics of BMS-986142, a novel reversible BTK inhibitor, in healthy participants” (European Journal of Clinical Pharmacology, 2017)
Read-outs that look alike come from different tables or passages of the source.

Assay: Plasma pharmacokinetics of BMS-986142, SAD
Type: in vivo
Settings: human, oral; for AUC(0-t): n = 6, read-out: AUC(0-T) geometric mean (%CV); for Cmax: n = 6, read-out: Cmax geometric mean (%CV)
Experimental: Eligible participants were confined to the clinical facility (WCCT Global, LLC, Cypress, CA) the day before dosing (day −1) and randomized to receive SAD or MAD treatment under fasting conditions for 10 h. In the SAD group, eight healthy non-Japanese participants were assigned to each of up to six sequential dose panels (single oral doses of 5, 15, 50, 100, 300, and 900 mg BMS-986142) or placebo. Within each dose panel, participants were randomized in a 3:1 ratio to receive BMS-986142 (n = 6) or placebo (n = 2). In the MAD group, eight healthy non-Japanese participants were assigned to each of four sequential dose panels (daily oral doses of 25, 75, 200, and 350 mg BMS-986142) or placebo. Within each dose panel, participants were randomized in a 3:1 ratio to receive once-daily (QD) doses of BMS-986142 or placebo from day 1 to day 14 (Online Resource 1). Escalation to the next dose level in SAD and MAD was conducted after safety assessment had been completed and the treatment was considered safe and well tolerated. Additionally, dose levels in MAD were selected not to exceed the steady-state exposure of BMS-986142 (AUC: 22,920 ng h/mL) at NOAEL in rats obtained from a 1-month GLP toxicology study.
Blood samples for the measurement of BMS-986142 were collected up to 168 h after dosing of BMS-986142 on day 1 for participants in SAD. In MAD, blood samples were collected up to 24 h on day 1 and up to 120 h on day 14 (the last day of treatment). Blood samples for the measurement of MTX were collected up to 48 h after dosing of MTX on days 1 and 8.
Plasma samples were analyzed for BMS-986142 levels with a validated method using liquid chromatography tandem mass spectrometry (LC-MS/MS) detection. The analyte was extracted from 50 μL of plasma using a liquid–liquid extraction method. Methyl tert-butyl ether was used as the extraction solvent. The lower limit of quantification (LLOQ) was 1.00 ng/mL in plasma. Plasma samples were analyzed for methotrexate levels using LC-MS/MS detection. Analytes were isolated from 50 μL plasma through solid phase extraction using Waters Oasis MAX, 10-mg, 96-well SPE plates. The final extract was analyzed using LC-MS/MS detection. LLOQ was 1.00 ng/mL in plasma. Detailed methodology quantitating the concentration level of BMS-986142 and MTX is provided in Online Resource 10.
Individual subject pharmacokinetic parameters for BMS-986142 and MTX were derived by a non-compartmental method using validated PK software (WinNonLin version 6.3; Pharsight Corporation, Mountain View, CA, USA). The following PK parameters for BMS-986142 and MTX were derived from plasma concentration versus time data: maximum observed plasma concentration (Cmax); minimum observed plasma concentration (Cmin); time to maximum observed plasma concentration (Tmax); area under the plasma concentration-time curve from time zero to the time of the last quantifiable concentration (AUC(0-T)), from time zero extrapolated to infinite time (AUC(inf)), and in one dosing interval (AUC(TAU)); terminal plasma half-life (T1/2); and AUC accumulation index (AI_AUC). AI_AUC was calculated to divide AUC(TAU) on day 14 by AUC(TAU) on day 1.
Summary statistics were tabulated for all PK parameters by treatment and study days. Geometric mean (Gmean) and coefficient of variation (CV) are presented for Cmax, AUC(0-T), AUC(inf), AI_AUC, Cmin, and AUC(TAU); arithmetic mean and standard deviation (SD) are presented for T1/2; and median and range are presented for Tmax. Dose proportionality was assessed using the previously described power model. Briefly, the simple linear regression was applied to the natural log of the PK parameters on the natural log of dose using the following equation (Eq. 1).1 ElogPKParameterDose=α+β∗logDose.
A slope (β) equal to 1 would indicate perfect dose proportionality. For each PK parameter (Cmax, AUC(0-T), AUC(TAU), and AUC(inf)), point estimates and 90% CI of the slopes were calculated.

Structure (SMILES): Cc1c(-c2c(F)cc(C(N)=O)c3[nH]c4c(c23)CC[C@H](C(C)(C)O)C4)cccc1-n1c(=O)c2cccc(F)c2n(C)c1=O [BMS-986142, 6-fluoro-5-(R)-(3-(S)-(8-fluoro-1-methyl-2,4-dioxo-1,2-dihydroquinazolin-3(4H)-yl)-2-methylphenyl)-2-(S)-(2-hydroxypropan-2-yl)-2,3,4,9-tetrahydro-1H-carbazole-8-carboxamide]
- half-life (both sexes, 5 mg, at low dose levels, read-out: T1/2 (converted)): ~7 h
- half-life (both sexes, at therapeutic doses, read-out: Mean T1/2): ≤ 11 h
- half-life (both sexes, single dose, 5–900 mg dose range, read-out: Mean T1/2 (half-life), range over doses): 7 to 11 h
- Tmax (both sexes, single dose, 5–900 mg dose range, read-out: Median Tmax (time of peak concentrations)): ≤ 2 h
- half-life (5 mg, SAD day 1, 5 mg, n = 5, read-out: T1/2 mean (SD) (converted)): 6.87 h
- half-life (15 mg, SAD day 1, 15 mg, n = 6, read-out: T1/2 mean (SD) (converted)): 8.02 h
- half-life (50 mg, SAD day 1, 50 mg, n = 6, read-out: T1/2 mean (SD) (converted)): 9.7 h
- half-life (100 mg, SAD day 1, 100 mg, n = 6, read-out: T1/2 mean (SD) (converted)): 10.3 h
- half-life (300 mg, SAD day 1, 300 mg, n = 6, read-out: T1/2 mean (SD) (converted)): 10.6 h
- half-life (900 mg, SAD day 1, 900 mg, n = 6, read-out: T1/2 mean (SD) (converted)): 10.7 h
- AUC(0-inf) (SAD day 1, 5 mg, n = 5, read-out: AUC(inf) geometric mean (%CV)): 102 ng·h/mL
- AUC(0-t) (SAD day 1, 5 mg): 83.1 ng·h/mL
- Cmax (SAD day 1, 5 mg): 9.03 ng/mL
- Tmax (SAD day 1, 5 mg, n = 6, read-out: Tmax median (min, max)): 2.03 h
- AUC(0-t) (SAD day 1, 15 mg): 369 ng·h/mL
- AUC(0-inf) (SAD day 1, 15 mg, n = 6, read-out: AUC(inf) geometric mean (%CV)): 388 ng·h/mL
- Cmax (SAD day 1, 15 mg): 36.9 ng/mL
- Tmax (SAD day 1, 15 mg, n = 6, read-out: Tmax median (min, max)): 2 h
- AUC(0-t) (SAD day 1, 50 mg): 1560 ng·h/mL
- AUC(0-inf) (SAD day 1, 50 mg, n = 6, read-out: AUC(inf) geometric mean (%CV)): 1590 ng·h/mL
- Cmax (SAD day 1, 50 mg): 185 ng/mL
- Tmax (SAD day 1, 50 mg, n = 6, read-out: Tmax median (min, max)): 1 h
- AUC(0-t) (SAD day 1, 100 mg): 3000 ng·h/mL
- AUC(0-inf) (SAD day 1, 100 mg, n = 6, read-out: AUC(inf) geometric mean (%CV)): 3020 ng·h/mL
- Cmax (SAD day 1, 100 mg): 311 ng/mL
- Tmax (SAD day 1, 100 mg, n = 6, read-out: Tmax median (min, max)): 1.5 h
- AUC(0-t) (SAD day 1, 300 mg): 11300 ng·h/mL
- AUC(0-inf) (SAD day 1, 300 mg, n = 6, read-out: AUC(inf) geometric mean (%CV)): 11400 ng·h/mL
- Cmax (SAD day 1, 300 mg): 1080 ng/mL
- Tmax (SAD day 1, 300 mg, n = 6, read-out: Tmax median (min, max)): 1.02 h
- AUC(0-t) (SAD day 1, 900 mg): 28000 ng·h/mL
- AUC(0-inf) (SAD day 1, 900 mg, n = 6, read-out: AUC(inf) geometric mean (%CV)): 28100 ng·h/mL
- Cmax (SAD day 1, 900 mg): 1880 ng/mL
- Tmax (SAD day 1, 900 mg, n = 6, read-out: Tmax median (min, max)): 2 h
